Where a SMILES comes first, the peptide text is derived from it. The star is where a group is joined. Cbz = O=C(OCc1ccccc1)*
How the values were obtained:
[1] = system: MDA-7 protein in 2008 cells; experiment: Western blotting of MDA-7 protein expression; assay type: cell-based, human; settings: 48 h, vs Ad-mda7 alone
Protocol: (§1) FIG. 11. Inhibition of the proteasomal activity by MG132 results in increased ubiquitinated MDA-7 protein expression in CDDP-sensitive tumor cells but not in CDDP-resistant tumor cells. FIG. 11A, CDDP-resistant (2008/C*13 R) and sensitive (2008) ovarian tumor cells were plated in six-well plates and were treated with PBS, MG132, Ad-mda7, or Ad-mda7 plus MG132. At 48 h after treatment cells were harvested, lysates and supernatants prepared and subjected to MDA-7 and total ubiquitinated protein detection by western blotting and proteasome activity assay using commercially available kit. […] However, the MDA-7 protein was increased in 2008 cells when treated with MG132 plus Ad-mda7. […] FIG. 11B, CDDP-resistant (2008/C*13 R) and sensitive (2008) ovarian tumor cells were plated in six-well plates and were treated with PBS, MG132, Ad-p53, or Ad-p53 plus MG132. At 48 h after treatment cells were harvested, lysates and supernatants prepared and subjected to p53 protein detection by western blotting and proteasome activity using commercially available kit. […] However, the p53 protein was increased in 2008 cells when treated with MG132 plus Ad-p53.
FIG. 18. […] CDDP-sensitive (2008) ovarian tumor cells were plated in six-well plates. […]
FIG. 21. […] MDA-7 protein was detected in cells that were treated with Ad-mda7. […]

[2] = system: proteasome activity in 2008 cells; experiment: Proteasome activity assay (commercially available kit) on cell lysates; assay type: cell-based, human; settings: 48 h
Protocol: as §1
FIG. 20. SiRNA-mediated inhibition of Beta-5 subunit expression of the 20S proteasome in CDDP-sensitive tumor cells abrogates proteasome activity. CDDP-sensitive (2008) ovarian tumor cells were plated in six-well plates. […]

With `CC(C)C[C@@H](C=O)NC(=O)[C@H](CC(C)C)NC(=O)[C@H](CC(C)C)NC(=O)OCc1ccccc1` [MG132] (Cbz-Leu-Leu-Leu-aldehyde) the “MDA-7 protein expression with proteasome inhibitor” value [1] was “significantly increased”, the “inhibition of proteasome activity” value ([2]; FIG. 11A (Ad-mda7 experiment)) was 60-65% and the “inhibition of proteasome activity” value ([2]; FIG. 11B (Ad-p53 experiment)) was 60-65%.
